We go through nine compounds from EP0118120A2, “1,4-Dihydropyridine compound” (priority 1983, dated 1984).

Some results are limits rather than exact numbers.

Data set [1] is described as follows: Acute toxicity, oral LD50 in rats (Example 29). The class given is in vivo. Conditions: rat, in vivo, male rats 5 weeks old, 100 to 125 g, observed for one week. The text has this: (§1) Acute toxicity of the compounds according to the present invention
Data set [2] concerns liver disorder induced by carbon tetrachloride. Kind of data set: Effect on liver disorder induced by carbon tetrachloride in rats, repeat with 8 weeks old rats (Example 27). It counts as in vivo, SLC-Wistar male rats. As to conditions: Table 5, serum 24 hours after CCl4, 200 mg/kg orally x2, rats 8 weeks old; for GOT: 170 to 210 g, CCl4 only 27875 ± 3628, normal 78 ± 3; for Bilirubin: CCl4 only 0.55 ± 0.16, normal 0.10 ± 0.00; for AlP: CCl4 only 41.3 ± 2.5, normal 25.7 ± 0.4; for GPT: CCl4 only 12984 ± 1465, normal 30 ± 3. The procedure: (§2) The effects of the sample compounds to be tested on hepatic disorder were evaluated by determining the levels of GOT, GPT, AlP, and bilirubin, which are known as an indicator of hepatic disorder, in serum, after administering carbon tetrachloride and the sample compounds to SLC-Wistar male rats (9 weeks old and body weight of 210 to 250 g in Tables 1, 3, and 4, and 10 weeks old and body weight of 230 to 260 g in Table 2) as follows.
(§3) Five rats were used in each test group. The sample compound (i.e., each compound listed below) was suspended at a concentration of 40 mg/ml in a 0.1% aqueous solution of Tween-80 (i.e., nonionic surfactant available from Atlas Powder Co., Ltd.). The resultant suspension was orally administered at a dose of 200 mg/kg each at 25 hours and 1 hour before the administration of carbon tetrachloride, except for the control group. For the control group to which only carbon tetrachloride was administered in the evaluation test, a 0.1% aqueous Tween-80 was orally administered at a dose of 5 ml/kg in the same manner.
(§4) Carbon tetrachloride was intraperiotoneally administered as a 10% olive oil solution at a dose of 5 ml/kg (0.5 ml/kg in terms of CC14) one hour after the final administration of the sample compound. For the control (normal) group, olive oil was intraperitoneally administered in the same manner at a dose of 5 ml/kg.
(§5) Blood samples were collected from the carotid artery under pentobarbital anesthesia, 24 hours after the administration of carbon tetrachloride. The rats were fasted for 18 to 22 hours before collecting the blood samples.
(§6) The determination of GOT and GPT in serum was carried out according to a UV method, the determination of AlP was carried cut according to Bessy-Lowry method, and the determination of bilirubin was carried out according to a diazo method.
(§7) Effect of the compounds according to the present invention on liver disorder induced by carbon tetrachloride
The evaluation tests of Example 26 were repeated except that SLC-Wistar male rats (8 weeks old and body weight of 170 to 210 g) were used.

Data set [3] can be described thus: Acute toxicity, oral LD50 in rats (Example 28). As to conditions: rat, in vivo, male rats 5 weeks old, 130 to 150 g, observed for one week.
From the text: as §1

Data set [4] has as its system liver disorder induced by carbon tetrachloride. As to the kind of experiment: Effect on liver disorder induced by carbon tetrachloride in rats, serum GOT, GPT, AlP, bilirubin (Example 26). It counts as in vivo, SLC-Wistar male rats. As to conditions: rats 9 weeks old. The procedure:
as §7, §2, §3, §4, §5, §6

The test system of data set [5] is SLC-Wistar male rats. As to the kind of experiment: Acute toxicity, oral LD50 in rats (Example 29). The class given is in vivo. Conditions: male rats 5 weeks old, 100 to 125 g, observed for one week, 10080 min.
From the text: as §1

Setting [6] is: Table 4, serum 24 hours after CCl4, 200 mg/kg orally x2, CCl4 only 0.38 ± 0.04, normal 0.10 ± 0.00.
Setting [7] is: Table 4, serum 24 hours after CCl4, 200 mg/kg orally x2, CCl4 only 35.0 ± 2.0, normal 24.4 ± 0.7.
Setting [8] is: Table 4, serum 24 hours after CCl4, 200 mg/kg orally x2, CCl4 only 10523 ± 2313, normal 31 ± 3.
The mark [9] stands for this setting: Table 4, serum 24 hours after CCl4, 200 mg/kg orally x2, CCl4 only 17704 ± 4140, normal 76 ± 4.
[10] abbreviates: Table 3, serum 24 hours after CCl4, 200 mg/kg orally x2, CCl4 only 0.38 ± 0.06, normal 0.22 ± 0.04.
Setting [11] is: Table 3, serum 24 hours after CCl4, 200 mg/kg orally x2, CCl4 only 34.4 ± 2.6, normal 27.0 ± 0.5.
[12] abbreviates: Table 3, serum 24 hours after CCl4, 200 mg/kg orally x2, CCl4 only 9188 ± 1815, normal 30 ± 2.
The mark [13] stands for this setting: Table 3, serum 24 hours after CCl4, 200 mg/kg orally x2, CCl4 only 13189 ± 2205, normal 81 ± 3.

Turning to `COCC1=C(C2C(C(C)=O)=C(C)NC(C)=C2C(C)=O)OCCO1` [Sample Compound V, 3,5-diacetyl-4-2-(3-methoxy-methvl-5,6-dihydro-p-dioxinyl) -2,6-dimethyl-l,4-dihydropyridine], the median lethal dose (LD50) at 168 h in data set [1] was > 2000 mg/kg. Moreover, in data set [2], the GOT was 2036 ± 677 K.U, the Bilirubin is 0.15 ± 0.03 mg/dL, the AlP was determined as 35.6 ± 1.4 K-AU and the GPT amounted to 1251 ± 414 K.U.
Consider `COCCOC(=O)C1=C(C)NC(C)=C(C(=O)OCCOC)C1C1=COCCO1` [Sample Compound J, bis (2-methoxyethyl) 4-[2-(5,6-dihydro-p-dioxinyl)]-2,6-dimethyl-1,4-dihydropyridine-3,5-dicarboxylate], for which, in data set [3], the LD50 at 168 h is > 1000 mg/kg. Further, the Bilirubin in data set [4] (setting [6]) turned out to be 0.18 ± 0.03 mg/dL. In data set [4] (setting [7]), this compound returned an AlP of 27.4 ± 2.6 K-AU. This compound showed a GPT in data set [4] (setting [8]) of 626 ± 179 K.U. Moreover, in data set [4] (setting [9]), the GOT is reported as 807 ± 211 K.U.
Consider `CC(=O)C1=C(C)NC(C)=C(C(C)=O)C1C1=COCCO1` [Sample Compound L, 3,5-diacetyl-4-[2-(5,6-dihydro-p-dioxinyl)]-2,6-dimethyl-1,4-dihydropyridine], for which the LD50 at 168 h in data set [3] is > 1000 mg/kg. Moreover, the Bilirubin in data set [4] (setting [6]) came to 0.22 ± 0.02 mg/dL. The same compound registered an AlP in data set [4] (setting [7]) of 34.2 ± 1.5 K-AU. The same compound had a GPT in data set [4] (setting [8]) of 285 ± 96 K.U. The compound further returned a GOT in data set [4] (setting [9]) of 429 ± 113 K.U.
On to `COCOC(=O)C1=C(C)NC(C)=C(C(=O)OCOC)C1C1=COCCO1` [Sample Compound F, bis(methoxymethyl) 4-[2-(5,6-dihydro-p-dioxinyl)]-2,6-dimethyl-1,4-dihydrcpyridine-3,5-dicarboxylate], for which the LD50 at 168 h in data set [1] was > 2000 mg/kg. The compound further returned a Bilirubin in data set [4] (setting [10]) of 0.22 ± 0.05 mg/dL. The AlP in data set [4] (setting [11]) turned out to be 26.4 ± 1.0 K-AU. Also, the GPT in data set [4] (setting [12]) was determined as 274 ± 99 K.U. Moreover, the GOT in data set [4] (setting [13]) was found to be 432 ± 107 K.U.
Regarding `C=CCOC(=O)C1=C(C)NC(C)=C(C(=O)OCC=C)C1C1=COCCO1` [Sample Compound H, diallyl 4-[2-(5,6-dihydro-p-dioxinyl)]-2,6-dimethyl-l,4-dihydropyridine-3,5-dicarboxylate], the median lethal dose (LD50) at 168 h in data set [3] was > 1000 mg/kg. In data set [4] (setting [6]), this compound yielded a Bilirubin of 0.22 ± 0.04 mg/dL. In data set [4] (setting [7]), this compound displayed an AlP of 29.5 ± 2.4 K-AU. Besides, in data set [4] (setting [8]), the GPT worked out at 1453 ± 699 K.U. In addition, in data set [4] (setting [9]), the GOT was found to be 1920 ± 881 K.U.
`COCN1C(C)=C(C(C)=O)C(C2=COCCO2)C(C(C)=O)=C1C` [Sample Compound R, 3,5-diacetyl-4-[2-(5,6-dihydro-p-dioxinyl)]-1-methoxymethyl-2,6-dimethyl-1,4-dihydropyridine]: the median lethal dose (LD50) at 168 h in data set [1] is > 1500 mg/kg. In data set [2], the GOT came out at 425 ± 124 K.U, the Bilirubin stood at 0.16 ± 0.02 mg/dL, the AlP came out at 31.4 ± 1.6 K-AU and the GPT was 260 ± 98 K.U.
In the case of `C#CCOC(=O)C1=C(C)NC(C)=C(C(=O)OCC#C)C1C1=COCCO1` [Sample Compound I, dipropargyl 4-[2-(5,6-dihydro-p-dioxinyl)]-2,6-dimethyl-l,4-dihydropyridine-3,5-dicarboxylate], in data set [3], the 50% lethal dose (LD50) at 168 h is > 2000 mg/kg. Moreover, in data set [4] (setting [6]), the Bilirubin was 0.22 ± 0.02 mg/dL. In addition, the AlP in data set [4] (setting [7]) was found to be 27.6 ± 1.8 K-AU. This compound gave a GPT in data set [4] (setting [8]) of 2110 ± 228 K.U. This compound also had a GOT in data set [4] (setting [9]) of 2925 ± 380 K.U.
As for “3,5-dicyano-4-[2-(5,6-dihydro-p--dioxinyl)]-2,6-dimethyl-1,4-dihvdropyridine [Sample Compound A]”, the median lethal dose (LD50) entry in data set [5] was “more than 1000 mg/kg”. In data set [4] (Table 1, serum 24 hours after CCl4 0.5 ml/kg i.p., compound 200 mg/kg orally 25 hours and 1 hour before CCl4, CCl4 only 17327 ± 2336, normal 76 ± 1), this compound gave a GOT of 3874 ± 792 K.U. The same compound had a Bilirubin in data set [4] (Table 1, serum 24 hours after CCl4, 200 mg/kg orally x2, CCl4 only 0.62 ± 0.30, normal 0.10 ± 0.00) of 0.24 ± 0.02 mg/dL. For the same compound, the AlP in data set [4] (Table 1, serum 24 hours after CCl4, 200 mg/kg orally x2, CCl4 only 35.5 ± 2.5, normal 23.6 ± 0.4) is reported as 31.4 ± 0.9 K-AU. For the same compound, the GPT in data set [4] (Table 1, serum 24 hours after CCl4, 200 mg/kg orally x2, CCl4 only 10496 ± 1221, normal 31 ± 2) came to 2380 ± 472 K.U.
In the case of `CC(=O)C1=C(C)NC(C)=C(C(C)=O)C1C1=C(C)OC(C)CO1` (stereo not drawn) [Sample Compound O, 3,5-diacetyl-2,6-dimethyl-4-2-(3,5-dimethyl-5,6-dihydro-p-dioxinyl) -1,4-dihydro pyridine], the median lethal dose (LD50) at 168 h in data set [1] is > 2000 mg/kg. In data set [4] (setting [10]), this compound gave a Bilirubin of 0.26 ± 0.02 mg/dL. Besides, in data set [4] (setting [11]), the AlP worked out at 37.2 ± 1.6 K-AU. In data set [4] (setting [12]), this compound yielded a GPT of 410 ± 64 K.U. The same compound registered a GOT in data set [4] (setting [13]) of 565 ± 98 K.U.
